Consider 3 compounds from patent publication US20120077760A1, “NOVEL SALTS OF SITAGLIPTIN” (LEK Pharmaceuticals D.D., priority 2009, published 2012).

Broadly, the solubility is the dissolved amount per volume that the medium holds.

This data set can be described thus: Solubility of sitagliptin salts in water at 25° C.

Method: The solubility in water was measured using Crysta™ from Avantium Technologies.

Take `N[C@@H](CC(=O)N1CCn2c(nnc2C(F)(F)F)C1)Cc1cc(F)c(F)cc1F.O=C[C@H](O)[C@@H](O)[C@H](O)[C@H](O)C(=O)O` [D-Glucuronate, Sitagliptin D-Glucuronate]: the “solubility in water (in words)” value is listed as “very good”. For the same compound, the Solubility in water (25° C.) is more than 500 mg/mL.
In the case of `N[C@@H](CC(=O)N1CCn2c(nnc2C(F)(F)F)C1)Cc1cc(F)c(F)cc1F` [Dihydrogen phosphate, sitagliptin dihydrogen phosphate, reference compound], the solubility (25 °C, thermodynamic from solid) lay within 100 to 120 mg/mL.
Consider Sitagliptin Oxalate, for which the “solubility in water (in words)” value was “very good”.
